From ChEMBL document CHEMBL1201862, “PubChem BioAssay data set” (2004)
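Briefly, cells in 96-well plates were exposed to five compound concentrations for 48 h, and endpoints were estimated by linear interpolation. At the GI50, growth is halved.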 The source made the active and inactive calls. Cut-off read from the data, not from the text of the source: active = GI50 up to about 1.1 µM and inactive = higher.

Columns and labels:
Test in all cases: NCI anticancer screen, dose series, 48 h
Hs-578T = test system: Hs-578T
OVCAR-8 = test system: OVCAR-8
CCRF-CEM = test system: CCRF-CEM
SF-268 = test system: SF-268
MOLT-4 = test system: MOLT-4
OVCAR-4 = test system: OVCAR-4
786-0 = test system: 786-0
K562 = test system: K562
SK-MEL-28 = test system: SK-MEL-28
HCT-116 = test system: HCT-116
BT-549 = test system: BT-549
UACC-257 = test system: UACC-257
HCC 2998 = test system: HCC 2998
LOX IMVI = test system: LOX IMVI
MDA-N = test system: MDA-N
SNB-75 = test system: SNB-75
CAKI-1 = test system: CAKI-1

SMILES	GI50 (Hs-578T)	GI50 (OVCAR-8)	GI50 (CCRF-CEM)	GI50 (SF-268)	GI50 (MOLT-4)	GI50 (OVCAR-4)	GI50 (786-0)	GI50 (K562)	GI50 (SK-MEL-28)	GI50 (HCT-116)	GI50 (BT-549)	GI50 (UACC-257)	GI50 (HCC 2998)	GI50 (LOX IMVI)	GI50 (MDA-N)	GI50 (SNB-75)	GI50 (CAKI-1)
CN(C)c1ccc(/C=C/c2nc3ccccc3s2)cc1	> 100 µM (inactive)	> 100 µM (inactive)	> 100 µM (inactive)	> 100 µM (inactive)	> 100 µM (inactive)	> 100 µM (inactive)	> 100 µM (inactive)	> 100 µM (inactive)	> 100 µM (inactive)	> 100 µM (inactive)	80 µM (inactive)	> 100 µM (inactive)	> 100 µM (inactive)	> 100 µM (inactive)	> 100 µM (inactive)	–	–
COC(=O)c1c(C(=O)OC)c2ccccn2c1-c1cc(C)cc2c1C(=O)C=CC2=O	12.9 µM (inactive)	6.3 µM (inactive)	0.796 µM (active)	13.9 µM (inactive)	1.38 µM (inactive)	14.2 µM (inactive)	5.48 µM (inactive)	2.67 µM (inactive)	12.9 µM (inactive)	10.7 µM (inactive)	–	3.43 µM (inactive)	13.9 µM (inactive)	> 10 µM (inactive)	10.5 µM (inactive)	16.4 µM (inactive)	5.08 µM (inactive)
CS(=O)(=O)O[C@H]1[C@H](O)c2ccccc2[C@@H]1N=[N+]=[N-]	–	> 100 µM (inactive)	> 100 µM (inactive)	–	> 100 µM (inactive)	> 100 µM (inactive)	> 100 µM (inactive)	> 100 µM (inactive)	> 100 µM (inactive)	> 100 µM (inactive)	> 100 µM (inactive)	> 100 µM (inactive)	> 100 µM (inactive)	> 100 µM (inactive)	> 100 µM (inactive)	21.4 µM (inactive)	> 100 µM (inactive)
COc1ccc(-n2c(=O)c3nc(S)[nH]c3n(-c3ccc(OC)cc3)c2=S)cc1	–	> 100 µM (inactive)	> 100 µM (inactive)	> 100 µM (inactive)	> 100 µM (inactive)	> 100 µM (inactive)	> 100 µM (inactive)	> 100 µM (inactive)	> 100 µM (inactive)	> 100 µM (inactive)	> 100 µM (inactive)	> 100 µM (inactive)	> 100 µM (inactive)	> 100 µM (inactive)	–	> 100 µM (inactive)	> 100 µM (inactive)
O=C(O)c1cnc(-n2[nH]c3c(c2=O)CCCC3)[nH]c1=O	> 100 µM (inactive)	> 100 µM (inactive)	> 100 µM (inactive)	> 100 µM (inactive)	> 100 µM (inactive)	> 100 µM (inactive)	> 100 µM (inactive)	> 100 µM (inactive)	> 100 µM (inactive)	> 100 µM (inactive)	> 100 µM (inactive)	> 100 µM (inactive)	–	–	> 100 µM (inactive)	–	> 100 µM (inactive)
CCc1ccc2oc(-c3cc(O)c(-c4nc5cc(CC)ccc5o4)cc3O)nc2c1	> 100 µM (inactive)	> 100 µM (inactive)	> 100 µM (inactive)	> 100 µM (inactive)	> 100 µM (inactive)	–	> 100 µM (inactive)	> 100 µM (inactive)	> 100 µM (inactive)	> 100 µM (inactive)	–	–	> 100 µM (inactive)	> 100 µM (inactive)	> 100 µM (inactive)	86.5 µM (inactive)	–
Cc1cccc(N2CCN(S(=O)(=O)c3ccc(Cl)cc3)C2=N)c1C	–	93.8 µM (inactive)	–	> 100 µM (inactive)	35 µM (inactive)	–	> 100 µM (inactive)	33.1 µM (inactive)	38.6 µM (inactive)	> 100 µM (inactive)	> 100 µM (inactive)	> 100 µM (inactive)	–	–	> 100 µM (inactive)	> 100 µM (inactive)	> 100 µM (inactive)
c1ccc(-c2cc(-c3ccccc3)nc(-c3ccncc3)c2)cc1	> 100 µM (inactive)	> 100 µM (inactive)	> 100 µM (inactive)	> 100 µM (inactive)	> 100 µM (inactive)	16.4 µM (inactive)	18 µM (inactive)	> 100 µM (inactive)	> 100 µM (inactive)	48.8 µM (inactive)	> 100 µM (inactive)	99.8 µM (inactive)	> 100 µM (inactive)	> 100 µM (inactive)	> 100 µM (inactive)	–	> 100 µM (inactive)
Cc1cc2ncn(CC(=O)O)c2cc1C	> 100 µM (inactive)	> 100 µM (inactive)	> 100 µM (inactive)	> 100 µM (inactive)	> 100 µM (inactive)	> 100 µM (inactive)	> 100 µM (inactive)	> 100 µM (inactive)	> 100 µM (inactive)	> 100 µM (inactive)	> 100 µM (inactive)	> 100 µM (inactive)	–	> 100 µM (inactive)	–	> 100 µM (inactive)	> 100 µM (inactive)
ClCCN1CCO/C1=N/c1ccc2c(c1)CCCC2	13.9 µM (inactive)	5.13 µM (inactive)	11.3 µM (inactive)	14.7 µM (inactive)	12.2 µM (inactive)	6.1 µM (inactive)	16.2 µM (inactive)	6.7 µM (inactive)	14.1 µM (inactive)	13.4 µM (inactive)	–	3.82 µM (inactive)	14.1 µM (inactive)	13.4 µM (inactive)	10.8 µM (inactive)	13.3 µM (inactive)	16 µM (inactive)
C1=C2C3=[N+](CCCC3)CC2Cc2ccsc21 (stereo not drawn)	> 100 µM (inactive)	82.6 µM (inactive)	> 100 µM (inactive)	> 100 µM (inactive)	> 100 µM (inactive)	84.3 µM (inactive)	> 100 µM (inactive)	> 100 µM (inactive)	> 100 µM (inactive)	> 100 µM (inactive)	81.3 µM (inactive)	33.9 µM (inactive)	–	> 100 µM (inactive)	> 100 µM (inactive)	93.8 µM (inactive)	> 100 µM (inactive)
Cc1cccc2c1CC1(C2)Cc2c(C)cccc2C1=O (stereo not drawn)	37.6 µM (inactive)	42.9 µM (inactive)	21.3 µM (inactive)	26.7 µM (inactive)	9.91 µM (inactive)	30.6 µM (inactive)	23.8 µM (inactive)	26.5 µM (inactive)	21.6 µM (inactive)	16.5 µM (inactive)	–	23 µM (inactive)	26.1 µM (inactive)	17.5 µM (inactive)	26.9 µM (inactive)	18.6 µM (inactive)	10.3 µM (inactive)
O=P1(c2ccccc2)c2ccccc2CCc2ccccc21	> 100 µM (inactive)	> 100 µM (inactive)	47.9 µM (inactive)	95.9 µM (inactive)	33.6 µM (inactive)	–	> 100 µM (inactive)	–	> 100 µM (inactive)	53 µM (inactive)	99.5 µM (inactive)	> 100 µM (inactive)	> 100 µM (inactive)	> 100 µM (inactive)	38.7 µM (inactive)	43.8 µM (inactive)	34.2 µM (inactive)
O=C(O)CSc1cc(-c2ccccc2)nc2ccccc12	19.4 µM (inactive)	63.2 µM (inactive)	–	35 µM (inactive)	46.3 µM (inactive)	64 µM (inactive)	47.1 µM (inactive)	33.3 µM (inactive)	85.1 µM (inactive)	5.41 µM (inactive)	32 µM (inactive)	71.9 µM (inactive)	–	46 µM (inactive)	35.6 µM (inactive)	–	67.5 µM (inactive)
COC(=O)c1cc2c(c3c1CC(Cc1ccccc1)C3=O)CCC2 (stereo not drawn)	45.9 µM (inactive)	95.3 µM (inactive)	36.5 µM (inactive)	91.6 µM (inactive)	53.6 µM (inactive)	81.1 µM (inactive)	71.8 µM (inactive)	38.1 µM (inactive)	> 100 µM (inactive)	> 100 µM (inactive)	–	> 100 µM (inactive)	36.7 µM (inactive)	45.9 µM (inactive)	> 100 µM (inactive)	40.9 µM (inactive)	–
CC(C)(C)C1=C(Br)C(F)(C(C)(C)C)OP1(=O)c1ccccc1 (stereo not drawn)	29.6 µM (inactive)	21.6 µM (inactive)	–	19.6 µM (inactive)	–	10.1 µM (inactive)	16.1 µM (inactive)	10 µM (inactive)	19.2 µM (inactive)	16.7 µM (inactive)	–	16.7 µM (inactive)	13.8 µM (inactive)	19.3 µM (inactive)	20 µM (inactive)	17 µM (inactive)	13 µM (inactive)
CC(=O)Oc1c(C)c2c(O)c3c1C1=C(OCOC1=C(C)C3=O)/C(C)=C/C(C)(O)C(O)C(C)C(O)C1C(=O)OC(C(C)C1O)C(C)(O)/C=C\C=C(C)C(=O)N2 (stereo not drawn)	25.7 µM (inactive)	70 µM (inactive)	21.5 µM (inactive)	31.8 µM (inactive)	36.1 µM (inactive)	–	53.7 µM (inactive)	21.7 µM (inactive)	81.5 µM (inactive)	57.1 µM (inactive)	19.7 µM (inactive)	> 100 µM (inactive)	69.5 µM (inactive)	27.4 µM (inactive)	> 100 µM (inactive)	24 µM (inactive)	17.1 µM (inactive)
CN1C(=O)c2ccccc2NC(=O)C12O[C@@H]2c1cccc(O)c1 (stereo partly drawn)	> 100 µM (inactive)	> 100 µM (inactive)	> 100 µM (inactive)	> 100 µM (inactive)	> 100 µM (inactive)	> 100 µM (inactive)	> 100 µM (inactive)	–	> 100 µM (inactive)	> 100 µM (inactive)	–	> 100 µM (inactive)	> 100 µM (inactive)	> 100 µM (inactive)	> 100 µM (inactive)	> 100 µM (inactive)	> 100 µM (inactive)
